# Test results taken from ChEMBL document CHEMBL1201862, “PubChem BioAssay data set” (2004).
# Activity calls are given as the source filed them.
# Columns and labels:
# [1] = biological target: T1, Rac GTPase-activating protein 1 (Homo sapiens, UniProt Q9H0H5); test: MgcRacGAP GTPase-activating activity inhibitors, confirmation, biochemical, ADP Hunter fluorescence, primary and confirmatory (AID 624330); format: functional
# T1 sequence (Q9H0H5 whole entry): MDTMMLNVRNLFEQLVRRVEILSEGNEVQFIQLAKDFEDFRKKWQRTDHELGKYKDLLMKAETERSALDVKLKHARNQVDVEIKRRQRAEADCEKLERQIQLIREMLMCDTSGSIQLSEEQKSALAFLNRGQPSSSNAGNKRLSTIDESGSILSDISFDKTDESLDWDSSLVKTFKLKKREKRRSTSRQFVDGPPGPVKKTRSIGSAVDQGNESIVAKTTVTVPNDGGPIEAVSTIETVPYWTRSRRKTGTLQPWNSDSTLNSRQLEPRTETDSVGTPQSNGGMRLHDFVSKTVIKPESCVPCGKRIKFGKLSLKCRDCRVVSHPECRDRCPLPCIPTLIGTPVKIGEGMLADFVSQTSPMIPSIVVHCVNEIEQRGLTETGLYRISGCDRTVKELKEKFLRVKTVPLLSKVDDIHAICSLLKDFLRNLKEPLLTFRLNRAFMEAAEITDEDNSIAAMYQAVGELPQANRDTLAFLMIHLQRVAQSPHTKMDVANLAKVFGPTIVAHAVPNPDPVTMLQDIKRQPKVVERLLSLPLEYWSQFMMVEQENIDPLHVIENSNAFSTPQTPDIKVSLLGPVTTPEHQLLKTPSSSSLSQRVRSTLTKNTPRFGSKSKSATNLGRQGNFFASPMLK
# Genome polyprotein = Genome polyprotein (dengue virus type 2, UniProt P29990); test: Dengue-2 NS5 methyltransferase inhibitors, primary screen, biochemical, confirmation dose response (AID 588689); format: functional
# Genome polyprotein, sequence (P29990 2492-3391 limits assumed): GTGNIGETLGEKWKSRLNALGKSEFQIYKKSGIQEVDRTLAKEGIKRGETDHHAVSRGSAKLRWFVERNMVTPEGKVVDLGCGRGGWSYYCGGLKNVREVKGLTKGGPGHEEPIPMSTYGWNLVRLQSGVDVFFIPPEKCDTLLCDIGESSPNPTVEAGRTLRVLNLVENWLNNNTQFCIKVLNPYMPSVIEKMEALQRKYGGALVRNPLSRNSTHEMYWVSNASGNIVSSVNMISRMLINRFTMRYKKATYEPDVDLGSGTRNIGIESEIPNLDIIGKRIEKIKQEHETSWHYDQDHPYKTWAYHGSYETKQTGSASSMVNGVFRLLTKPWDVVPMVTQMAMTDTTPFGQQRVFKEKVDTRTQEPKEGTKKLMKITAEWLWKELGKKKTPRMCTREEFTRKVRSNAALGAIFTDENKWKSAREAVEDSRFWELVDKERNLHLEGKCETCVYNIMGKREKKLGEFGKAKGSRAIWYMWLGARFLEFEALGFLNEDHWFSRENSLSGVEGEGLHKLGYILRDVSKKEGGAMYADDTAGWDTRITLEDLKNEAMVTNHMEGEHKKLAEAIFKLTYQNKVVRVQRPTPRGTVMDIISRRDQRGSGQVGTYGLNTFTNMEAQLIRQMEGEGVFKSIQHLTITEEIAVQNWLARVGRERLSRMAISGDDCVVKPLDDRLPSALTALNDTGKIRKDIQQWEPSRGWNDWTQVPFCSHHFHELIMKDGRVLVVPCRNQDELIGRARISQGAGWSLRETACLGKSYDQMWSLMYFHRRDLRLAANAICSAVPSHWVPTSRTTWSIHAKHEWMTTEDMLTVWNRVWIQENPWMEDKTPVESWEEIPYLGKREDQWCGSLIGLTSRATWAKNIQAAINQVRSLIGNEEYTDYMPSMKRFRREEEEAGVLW
# Cytochrome P450 2C9 = Cytochrome P450 2C9 (Homo sapiens, UniProt P11712)
# Cytochrome P450 2C9, sequence (P11712 whole entry): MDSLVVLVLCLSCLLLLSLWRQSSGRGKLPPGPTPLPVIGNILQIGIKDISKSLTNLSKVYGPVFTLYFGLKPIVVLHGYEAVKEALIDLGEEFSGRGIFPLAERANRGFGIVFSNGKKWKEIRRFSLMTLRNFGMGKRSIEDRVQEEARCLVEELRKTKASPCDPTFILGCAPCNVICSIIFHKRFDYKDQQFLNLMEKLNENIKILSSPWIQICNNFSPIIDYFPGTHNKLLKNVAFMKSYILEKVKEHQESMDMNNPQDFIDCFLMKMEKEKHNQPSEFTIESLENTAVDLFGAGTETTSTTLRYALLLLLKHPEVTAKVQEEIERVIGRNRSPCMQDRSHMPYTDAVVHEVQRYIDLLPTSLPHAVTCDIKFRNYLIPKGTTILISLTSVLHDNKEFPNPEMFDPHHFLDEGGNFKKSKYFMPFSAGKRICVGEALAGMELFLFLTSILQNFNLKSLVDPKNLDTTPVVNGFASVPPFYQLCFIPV
# Cytochrome P450 1A2 = biological target: T2, Cytochrome P450 1A2 (Homo sapiens, UniProt P05177);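 also: PubChem cytochrome P450 panel assay, CYP1A2 panel member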
# T2 sequence (P05177 whole entry): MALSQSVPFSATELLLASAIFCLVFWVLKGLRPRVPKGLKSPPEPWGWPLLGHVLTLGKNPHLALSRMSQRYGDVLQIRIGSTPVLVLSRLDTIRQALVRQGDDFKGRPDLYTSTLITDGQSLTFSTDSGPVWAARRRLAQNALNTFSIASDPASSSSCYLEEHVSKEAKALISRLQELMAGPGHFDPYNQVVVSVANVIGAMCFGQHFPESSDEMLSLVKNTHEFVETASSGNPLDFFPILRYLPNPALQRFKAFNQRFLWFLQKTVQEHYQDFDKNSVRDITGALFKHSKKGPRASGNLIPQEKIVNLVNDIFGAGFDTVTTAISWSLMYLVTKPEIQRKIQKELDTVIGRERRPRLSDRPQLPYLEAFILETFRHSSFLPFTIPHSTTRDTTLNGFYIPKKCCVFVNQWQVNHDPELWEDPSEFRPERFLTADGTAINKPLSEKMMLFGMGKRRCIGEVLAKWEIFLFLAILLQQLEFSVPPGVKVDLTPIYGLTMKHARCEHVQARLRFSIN
# Cytochrome P450 2D6 = Cytochrome P450 2D6 (Homo sapiens, UniProt P10635);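 also: CYP2D6 member of a cytochrome P450 panel assay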
# Cytochrome P450 2D6, sequence (P10635 whole entry): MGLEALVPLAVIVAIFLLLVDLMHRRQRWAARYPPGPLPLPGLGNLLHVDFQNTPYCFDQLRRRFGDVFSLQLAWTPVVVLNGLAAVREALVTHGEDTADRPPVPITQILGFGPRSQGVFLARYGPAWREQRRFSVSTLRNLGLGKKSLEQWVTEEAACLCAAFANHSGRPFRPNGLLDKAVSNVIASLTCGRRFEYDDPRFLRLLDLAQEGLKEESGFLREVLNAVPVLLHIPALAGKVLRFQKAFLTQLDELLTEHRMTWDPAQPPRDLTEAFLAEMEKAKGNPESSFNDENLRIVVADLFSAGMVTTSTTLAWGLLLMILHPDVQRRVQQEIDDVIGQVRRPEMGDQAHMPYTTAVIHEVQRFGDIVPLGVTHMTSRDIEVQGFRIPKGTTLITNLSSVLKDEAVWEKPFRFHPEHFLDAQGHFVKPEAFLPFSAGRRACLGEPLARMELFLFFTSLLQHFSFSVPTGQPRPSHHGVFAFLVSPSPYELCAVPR
# [2] = biological target: T3, Replicative DNA helicase DnaB (Mycobacterium tuberculosis, UniProt P9WMR3); test: DnaB intein splicing inhibitors, dose response, biochemical, cell-free fluorescence (AID 449749); format: functional
# T3 sequence (P9WMR3 whole entry): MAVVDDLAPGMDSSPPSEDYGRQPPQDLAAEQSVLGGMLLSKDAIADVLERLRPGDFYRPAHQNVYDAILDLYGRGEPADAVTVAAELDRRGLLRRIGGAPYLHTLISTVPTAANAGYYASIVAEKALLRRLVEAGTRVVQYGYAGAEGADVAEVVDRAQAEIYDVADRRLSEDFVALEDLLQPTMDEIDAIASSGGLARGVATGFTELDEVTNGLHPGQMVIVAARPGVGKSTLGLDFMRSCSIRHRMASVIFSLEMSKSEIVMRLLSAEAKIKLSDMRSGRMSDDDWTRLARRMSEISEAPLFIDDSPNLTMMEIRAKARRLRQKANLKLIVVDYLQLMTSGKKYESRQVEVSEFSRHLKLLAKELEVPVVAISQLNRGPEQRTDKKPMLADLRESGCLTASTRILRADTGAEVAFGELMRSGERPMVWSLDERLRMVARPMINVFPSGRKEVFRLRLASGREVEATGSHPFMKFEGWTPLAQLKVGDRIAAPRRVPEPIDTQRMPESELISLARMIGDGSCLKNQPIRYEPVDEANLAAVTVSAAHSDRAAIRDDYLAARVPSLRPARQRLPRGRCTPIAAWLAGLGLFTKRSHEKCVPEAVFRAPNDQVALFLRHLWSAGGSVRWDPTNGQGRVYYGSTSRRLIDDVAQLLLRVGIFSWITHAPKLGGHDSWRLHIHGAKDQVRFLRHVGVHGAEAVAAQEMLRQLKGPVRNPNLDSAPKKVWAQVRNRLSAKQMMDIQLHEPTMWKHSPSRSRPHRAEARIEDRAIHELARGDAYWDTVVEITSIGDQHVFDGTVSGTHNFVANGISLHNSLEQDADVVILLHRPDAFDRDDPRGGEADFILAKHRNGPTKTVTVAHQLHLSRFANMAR
# Protein RecA = biological target: T4, Protein RecA (Mycobacterium tuberculosis, UniProt P9WHJ3); test: Fluorescence Cell-Free Homogeneous Dose Retest to Identify Inhibitors of RecA-Intein Splicing Activity. [Related pubchem assays (depositor defined):AID2097, AID2223, AID489010, AID492950]; format: functional
# T4 sequence (P9WHJ3 whole entry): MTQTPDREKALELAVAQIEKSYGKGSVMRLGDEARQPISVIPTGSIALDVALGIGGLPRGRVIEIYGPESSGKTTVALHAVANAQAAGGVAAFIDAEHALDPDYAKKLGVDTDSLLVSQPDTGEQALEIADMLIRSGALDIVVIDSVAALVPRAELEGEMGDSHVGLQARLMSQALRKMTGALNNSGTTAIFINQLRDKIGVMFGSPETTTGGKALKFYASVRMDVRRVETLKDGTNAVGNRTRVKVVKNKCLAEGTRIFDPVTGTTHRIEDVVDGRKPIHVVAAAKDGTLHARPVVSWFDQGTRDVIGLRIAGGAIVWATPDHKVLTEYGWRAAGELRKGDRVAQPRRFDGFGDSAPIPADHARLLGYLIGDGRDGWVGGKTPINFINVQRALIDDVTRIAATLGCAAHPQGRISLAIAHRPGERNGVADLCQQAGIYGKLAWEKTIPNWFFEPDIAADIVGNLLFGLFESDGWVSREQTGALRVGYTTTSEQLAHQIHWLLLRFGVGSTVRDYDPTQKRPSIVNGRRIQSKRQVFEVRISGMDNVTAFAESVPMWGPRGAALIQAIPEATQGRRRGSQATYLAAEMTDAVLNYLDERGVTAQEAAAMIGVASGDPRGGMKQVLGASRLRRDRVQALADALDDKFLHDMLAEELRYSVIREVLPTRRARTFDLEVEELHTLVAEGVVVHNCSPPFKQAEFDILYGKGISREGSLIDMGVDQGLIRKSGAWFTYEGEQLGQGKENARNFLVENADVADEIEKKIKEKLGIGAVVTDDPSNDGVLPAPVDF
# Vero = test: cells; format: functional; settings: Chlorocebus sabaeus
# Cytochrome P450 3A4 = Cytochrome P450 3A4 (Homo sapiens, UniProt P08684);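 also: CYP3A4 tested as one member of a cytochrome P450 panel screen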
# Cytochrome P450 3A4, sequence (P08684 whole entry): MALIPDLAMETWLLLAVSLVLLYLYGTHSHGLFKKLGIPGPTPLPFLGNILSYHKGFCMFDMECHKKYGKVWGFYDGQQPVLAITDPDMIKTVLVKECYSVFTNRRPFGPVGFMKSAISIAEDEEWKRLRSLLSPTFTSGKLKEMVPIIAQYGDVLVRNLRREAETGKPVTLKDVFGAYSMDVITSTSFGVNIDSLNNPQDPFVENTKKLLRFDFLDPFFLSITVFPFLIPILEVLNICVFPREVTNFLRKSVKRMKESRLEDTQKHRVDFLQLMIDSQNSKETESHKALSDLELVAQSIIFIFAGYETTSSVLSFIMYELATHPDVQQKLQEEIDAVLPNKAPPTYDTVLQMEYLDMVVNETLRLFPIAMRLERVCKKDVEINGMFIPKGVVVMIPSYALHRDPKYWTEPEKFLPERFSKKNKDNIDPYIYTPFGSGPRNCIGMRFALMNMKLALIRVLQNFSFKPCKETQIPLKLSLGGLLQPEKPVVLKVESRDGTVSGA
# [3] = cytotoxicity toward NIH3T3 fibroblasts, dose response, counter-screen, cell-based, ATP luminescence, mouse fibroblasts (AID 2010); format: functional;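 also: cells exposed to compound for about 90 hours before reading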
# [4] = inhibitors of intracellular T. cruzi replication, confirmation, NIH3T3 host cells, beta-gal luminescence (AID 2044); format: functional, cell-based;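 also: intracellular parasites grown in NIH/3T3 mouse fibroblasts as host cells; luminescent beta-galactosidase reporter signal from transgenic T. cruzi replicating inside host cells; inhibitors lower the luminescence signal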
# [5] = HEp-2 cell cytotoxicity, dose response, cytotoxicity control for RSV inhibitor project, HTS (AID 2410); format: functional; settings: human respiratory syncytial virus
smiles,measurement,setting,value
O=C1NN(c2ccccc2)C(=O)C1=Cc1ccccc1O,IC50,[1],81.3 µM (active)
same,IC50,Genome polyprotein,34.6 µM (active)
O=C(CS(=O)(=O)c1cccc(Cl)c1)Nc1ccccc1Cl,AC50,Cytochrome P450 2C9,inconclusive
same,AC50,Cytochrome P450 1A2,22.4 µM (inconclusive)
same,AC50,Cytochrome P450 2D6,17.8 µM (inconclusive)
CC(=C\c1ccccc1)/C=C1/SC(=S)N(C(C(=O)O)C(C)C)C1=O (centres undefined),IC50,Genome polyprotein,34.1 µM (active)
Cc1ccc(N2C(=O)NC(=O)/C(=C/c3ccc(OC(=O)c4cccs4)cc3)C2=O)cc1,AC50,[2],0.64 µM (active)
same,IC50,Genome polyprotein,55.4 µM (active)
same,EC50,Protein RecA,0.772 µM (active)
O=C1NC(=O)C(=Cc2ccccc2Oc2ccc(F)cc2)C(=O)N1,IC50,Genome polyprotein,37.5 µM (active)
CCOc1cc2c(cc1O)C(=NO)CC1C2CCC2(C)C(O)CCC12 (centres undefined),CC50,Vero,4.99 µM (active)
CCCCn1nnnc1SCC(=O)c1cc(Cl)ccc1OC,AC50,Cytochrome P450 2C9,inconclusive
same,AC50,Cytochrome P450 2D6,22.4 µM (inconclusive)
same,AC50,Cytochrome P450 3A4,14.1 µM (inconclusive)
CCCSc1nc(C)cc(C)c1S(=O)(=O)c1ccccc1C,AC50,Cytochrome P450 2C9,inconclusive
same,AC50,Cytochrome P450 1A2,11.2 µM (inconclusive)
same,AC50,Cytochrome P450 2D6,39.8 µM (inconclusive)
CC1=C(C(=O)Nc2ccccc2F)C(c2ccsc2)C2=C(O)CC(c3ccccc3)CC2=N1 (centres undefined),AC50,Cytochrome P450 2C9,inconclusive
same,EC50,[3],8.96 µM (active)
same,EC50,[4],3.32 µM (active)
same,AC50,Cytochrome P450 1A2,11.2 µM (inconclusive)
CC(=O)Nc1ccc(S(=O)(=O)Nc2cccc(-c3nc4cc(C)ccc4o3)c2)cc1,CC50,Vero,> 25 µM (active)
same,CC50,[5],9.33 µM (active)
CNC[C@H](CC1CCCCC1)NC[C@H](NCCC1CCCC1)[C@H](C)O,CC50,Vero,> 25 µM (active)
